Laboratory results reported in patent US11787799B2 (priority 2015, dated 2023).
“And” between values parts separate entries of the source, which are not always exact repeats. Equal entries are not always repeated. Where two headings read alike, the source gives them in different places.

Columns and labels:
Coxsackievirus B3-H3 = assay: microbe, parasite or virus in culture; assay type: cell-based; settings: read-out: EC50 CVB3-H3
Poliovirus 1 = assay: microbe, parasite or virus in culture; assay type: cell-based; settings: read-out: EC50 PV1
Poliovirus 3 = assay: microbe, parasite or virus in culture; assay type: cell-based; settings: read-out: EC50 PV3
Coxsackievirus B1 = assay: microbe, parasite or virus in culture; assay type: cell-based; settings: read-out: EC50 CVB1
Coxsackievirus B2 = assay: microbe, parasite or virus in culture; assay type: cell-based; settings: read-out: EC50 CVB2
Coxsackievirus B4 = assay: microbe, parasite or virus in culture; assay type: cell-based; settings: read-out: EC50 CVB4
Coxsackievirus B5 = assay: microbe, parasite or virus in culture; assay type: cell-based; settings: read-out: EC50 CVB5
Enterovirus 71 = assay: microbe, parasite or virus in culture; assay type: cell-based; settings: read-out: EC50 EV71
Coxsackievirus A9 = assay: microbe, parasite or virus in culture; assay type: cell-based; settings: read-out: EC50 COX A9
Echovirus 6 = assay: microbe, parasite or virus in culture; assay type: cell-based; settings: read-out: EC50 ECHO06
Echovirus 7 = assay: microbe, parasite or virus in culture; assay type: cell-based; settings: read-out: EC50 ECHO07
Echovirus 9 = assay: microbe, parasite or virus in culture; assay type: cell-based; settings: read-out: EC50 ECHO09
Echovirus 25 = assay: microbe, parasite or virus in culture; assay type: cell-based; settings: read-out: EC50 ECHO25
Echovirus 30 = assay: microbe, parasite or virus in culture; assay type: cell-based; settings: read-out: EC50 ECHO30
Enterovirus D68/Fermon = assay: Antiviral assay, Enterovirus D68 strain Fermon in RD cells; assay type: cell-based
[1] = system: Enterovirus D68/US/Mo/14-18949; assay: Antiviral assay, Enterovirus D68 strain US/Mo/14-18949 in RD cells; assay type: cell-based
[2] = system: Enterovirus D68/US/KY/14-18953; assay: Antiviral assay, Enterovirus D68 strain US/KY/14-18953 in RD cells; assay type: cell-based
Measles = assay: microbe, parasite or virus in culture; assay type: cell-based; settings: read-out: EC50 Measles
SARS Coronavirus = assay type: cell-based
Influenza A H1N1 = assay: microbe, parasite or virus in culture; assay type: cell-based; settings: read-out: EC50 Influenza A H1N1
[3] = system: RSV (resp syncitial virus); assay: microbe, parasite or virus in culture; assay type: cell-based; settings: read-out: EC50 RSV
Japanese Encephalitis = assay type: cell-based
Powassan = assay type: cell-based, Powassan virus
Yellow Fever Virus = assay: microbe, parasite or virus in culture; assay type: cell-based; settings: read-out: EC50 Yellow Fever Virus
Punta Toro virus = assay: microbe, parasite or virus in culture; assay type: cell-based; settings: read-out: EC50 Punta Toro virus
Rift Valley virus = assay: organism not typed; assay type: cell-based; settings: read-out: EC50 Rift Valley virus
Venezuelan Encephalitis = assay type: cell-based, Venezuelan encephalitis virus
Chikungunya = assay type: cell-based, chikungunya virus
Rabies = assay type: cell-based, rabies virus
BHK = settings: read-out: CC50 (Powassan test)
Vero = settings: read-out: CC50 (Yellow Fever Virus test)
BHK-21 = settings: read-out: CC50 (Rabies test)
Echovirus 11 = assay: microbe, parasite or virus in culture; assay type: cell-based; settings: read-out: EC50 ECHO11
[4] = read-out: CC50 (Rift Valley virus test), with Rift Valley virus MP-12 test
[5] = read-out: CC50 (SARS Coronavirus test), with SARS Coronavirus Urbani test

SMILES | EC50 (Coxsackievirus B3-H3) [nM] | EC50 (Poliovirus 1) [µM] | EC50 (Poliovirus 3) [µM] | EC50 (Coxsackievirus B1) [nM] | EC50 (Coxsackievirus B2) [nM] | EC50 (Coxsackievirus B4) [nM] | EC50 (Coxsackievirus B5) [nM] | EC50 (Enterovirus 71) [nM] | EC50 (Coxsackievirus A9) [nM] | EC50 (Echovirus 6) [nM] | EC50 (Echovirus 7) [nM] | EC50 (Echovirus 9) [nM] | EC50 (Echovirus 25) [nM] | EC50 (Echovirus 30) [nM] | EC50 (Enterovirus D68/Fermon) | EC50 [1] [nM] | EC50 [2] [nM] | EC50 (Measles) [µM] | EC50 (SARS Coronavirus) [µM] | EC50 (Influenza A H1N1) [µM] | other results
CC(C)n1ncc2c(C(=O)Nc3cccc(S(N)(=O)=O)c3)cc(-c3cccs3)nc21 [JX-025] | 300 | 5 | 5 | 1200 | 1200 | 1100 ± 200 | 1200 | 1300 ± 100 | 2100 ± 700 | 1100 ± 300 | 2100 ± 600 | 1200 | 1100 | 600 | 100 nM and 150 nM | 60 ± 20 | 150 | 7.1 | > 7.2 | > 100 | EC50 [3]: > 100 µM; EC50 (Japanese Encephalitis): 310 nM; EC50 (Powassan): > 8.9 µM; EC50 (Yellow Fever Virus): > 4.8 µM; EC50 (Punta Toro virus): 38 µM; EC50 (Rift Valley virus): > 100 µM; EC50 (Venezuelan Encephalitis): > 880 nM; EC50 (Chikungunya): 300 nM; EC50 (Rabies): > 12.2 µM; CC50 (HeLa-RW cells): 50 µM; CC50 (LLC cells): 25 µM; CC50 (RD cells): 50 µM; CC50 (Vero 76; [4]): > 100 µM; CC50 (Vero 76; [5]): 7.2 µM; CC50 (MDCK): > 100 µM; CC50 (MA-104): > 100 µM; CC50 (BHK): 8.9 µM; CC50 (Vero): 4.8 µM; CC50 (BHK-21): 12.2 µM
CC(C)n1ncc2c(C(=O)Nc3ccccc3F)cc(-c3cccs3)nc21 [JX-001] | 1400 ± 600 | 7 | 7 | 2400 ± 200 | 2800 ± 400 | 2300 | 2300 | 1800 ± 500 | 2600 ± 900 | 2300 ± 900 | 2400 | 2100 ± 1200 | 3000 | 1200 | 350 ± 50 nM | 330 ± 50 | 500 ± 170 | > 4 | 3.2 | > 100 | EC50 (Echovirus 11): 1500 ± 400 nM; EC50 [3]: 3.4 µM; EC50 (Japanese Encephalitis): > 14 nM; EC50 (Powassan): > 33 µM; EC50 (Yellow Fever Virus): > 4.8 µM; EC50 (Punta Toro virus): > 39 µM; EC50 (Rift Valley virus): > 50 µM; EC50 (Venezuelan Encephalitis): > 980 nM; EC50 (Chikungunya): 310 nM; EC50 (Rabies): > 100 µM; CC50 (HeLa-RW cells): 12.5 µM; CC50 (RD cells): 200 µM; CC50 (Vero 76; [4]): 50 µM; CC50 (Vero 76; [5]): 3.3 µM; CC50 (MDCK): > 100 µM; CC50 (MA-104): 4.7 µM; CC50 (BHK): > 33 µM; CC50 (Vero): 4.8 µM; CC50 (BHK-21): > 100 µM
CC(C)n1ncc2c(C(=O)Nc3ccc(F)cc3F)cc(-c3cccs3)nc21 [JX-008] | 1400 ± 500 | > 25 | > 25 | 2300 | 2800 ± 400 | 2300 | 2300 | 1600 ± 400 | 2300 ± 800 | 1900 ± 700 | 2400 | 1500 ± 1000 | 1500 | 800 | 330 ± 60 nM | 280 ± 80 | 400 ± 170 | 34 | 68 | 70 | EC50 (Echovirus 11): 1400 ± 400 nM; EC50 [3]: > 100 µM; EC50 (Japanese Encephalitis): > 440 nM; EC50 (Powassan): > 38 µM; EC50 (Yellow Fever Virus): 45 µM; EC50 (Punta Toro virus): 23 µM; EC50 (Rift Valley virus): > 77 µM; EC50 (Venezuelan Encephalitis): > 480 nM; EC50 (Chikungunya): > 660 nM; EC50 (Rabies): > 100 µM; CC50 (HeLa-RW cells): > 200 µM; CC50 (LLC cells): > 200 µM; CC50 (RD cells): 100 µM; CC50 (Vero 76; [4]): 77 µM; CC50 (Vero 76; [5]): > 100 µM; CC50 (MDCK): > 100 µM; CC50 (MA-104): > 100 µM; CC50 (BHK): 38 µM; CC50 (Vero): 50 µM; CC50 (BHK-21): > 100 µM
CC(C)n1ncc2c(C(=O)Nc3ccc(F)cc3)cc(-c3cccs3)nc21 [JX-017] | 700 ± 200 | > 25 | > 25 | 900 ± 300 | 1000 ± 300 | 800 | 1000 ± 100 | 900 ± 300 | 900 ± 500 | 1000 ± 400 | 1300 ± 200 | 600 | 1200 | 500 | 330 ± 60 nM | 350 ± 60 | 500 ± 170 | 8.9 | > 10 | > 100 | EC50 [3]: 69 µM; EC50 (Japanese Encephalitis): > 430 nM; EC50 (Powassan): 32 µM; EC50 (Yellow Fever Virus): > 9.9 µM; EC50 (Punta Toro virus): 12 µM; EC50 (Rift Valley virus): > 52 µM; EC50 (Venezuelan Encephalitis): 320 nM; EC50 (Chikungunya): 290 nM; EC50 (Rabies): > 100 µM; CC50 (HeLa-RW cells): > 200 µM; CC50 (LLC cells): > 200 µM; CC50 (RD cells): > 200 µM; CC50 (Vero 76; [4]): 52 µM; CC50 (Vero 76; [5]): 10 µM; CC50 (MDCK): > 100 µM; CC50 (MA-104): > 100 µM; CC50 (BHK): 37 µM; CC50 (Vero): 9.9 µM; CC50 (BHK-21): > 100 µM
